From patent US11572590B2, “Methods for evaluating tumor cell spheroids using 3D microfluidic cell culture device” (Dana-Farber Cancer Institute, Inc., priority 2017, dated 2023)
Like-named read-outs stand apart in the source and are kept apart here.

Target: T1, TBK1 (Homo sapiens, UniProt Q9UHD2)
T1 sequence (Q9UHD2 1-729): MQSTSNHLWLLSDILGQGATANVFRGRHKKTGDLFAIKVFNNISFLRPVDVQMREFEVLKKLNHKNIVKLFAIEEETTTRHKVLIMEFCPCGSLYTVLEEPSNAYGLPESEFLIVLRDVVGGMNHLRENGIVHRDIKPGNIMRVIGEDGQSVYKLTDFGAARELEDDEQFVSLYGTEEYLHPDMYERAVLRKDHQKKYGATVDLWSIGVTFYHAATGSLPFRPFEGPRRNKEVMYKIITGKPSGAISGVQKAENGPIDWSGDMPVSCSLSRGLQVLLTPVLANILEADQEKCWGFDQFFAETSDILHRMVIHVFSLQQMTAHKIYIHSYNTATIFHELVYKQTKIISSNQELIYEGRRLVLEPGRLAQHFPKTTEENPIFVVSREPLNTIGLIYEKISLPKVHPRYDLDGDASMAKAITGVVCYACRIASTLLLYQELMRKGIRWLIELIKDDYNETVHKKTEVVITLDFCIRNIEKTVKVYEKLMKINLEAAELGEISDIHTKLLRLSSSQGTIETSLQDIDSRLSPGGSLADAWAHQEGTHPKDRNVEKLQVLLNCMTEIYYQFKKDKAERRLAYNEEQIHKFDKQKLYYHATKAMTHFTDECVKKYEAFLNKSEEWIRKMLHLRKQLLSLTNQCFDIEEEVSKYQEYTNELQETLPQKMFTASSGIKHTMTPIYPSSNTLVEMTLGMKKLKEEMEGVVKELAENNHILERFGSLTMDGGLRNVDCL
Test: SelectScreen Kinase Profiling, IC50 for TBK1
Format: biochemical
Conditions: ATP Km app, ZLYTE; for inhibition: TBK1
Procedure: Biochemical single point inhibition and IC50 concentrations for TBK1, IKKε (IKBKE), and off-target kinases were determined at ThermoFisher Scientific using SelectScreen Kinase Profiling Services (Madison, Wis., USA) (Tables S4A and S4B-1-7). To determine cellular potency, the human colorectal cancer carcinoma cell line HCT116 (ATCC, Manassas, Va.) was maintained in T175 flasks in complete RPMI medium; RPMI 1640 supplemented with 10% FBS, 1× Penicillin-Streptomycin solution and 1×MEM (non-essential amino acids). HCT116 cells were grown to 90-95% confluency in T175 flasks containing complete RPMI medium and transfected in bulk using Lipofectamine 2000 (Invitrogen, Carlsbad, Calif.) with 70 μg of ISG54-luciferase reporter plasmid (Elim Biopharmaceuticals Inc., Hayward, Calif.). The reporter plasmid contains a luciferase gene expression cassette under the transcriptional regulation of the promoter of the human interferon stimulated gene 54 (ISG54). Transfection of the cells was allowed to take place for 6 hours, after which the cells were harvested by treatment with 0.25% trypsin EDTA (Corning Inc., Corning, N.Y.). Trypsinized cells were added to 384-well poly-d-lysine treated black clear bottom tissue culture assay plates (Greiner Bio-One GmbH, Kremsmünster, Austria) at a density of 20,000 cells/well in 80 μL of complete RPMI medium and incubated overnight. After 16-18 hours post-transfection, the assay plates were washed with PBS (Corning Inc., Corning, N.Y.), followed by addition of 80 μL/well of serum-free RPMI 1640 medium containing 1× Penicillin-Streptomycin solution, 1×MEM and 350 nL of DMSO or titrations of Compound 1. Compound 1 titrations were generated by 1.5-fold dilution steps in two overlapping serial dilution series to generate a 40-point compound dose range. After incubation at 37° C. for 1 hour, the cells were stimulated with Poly(I:C) (InvivoGen, San Diego, Calif.) at a final concentration of 15 μg/mL in Optimem media (Life Technologies, Rockville, Md.). The assay plates were incubated for 5 hours at 37° C., followed by addition of One-Glo luciferase firefly reagent (Promega, Madison, Wis.) at 1:1 volume/well and luminescence was measured in an EnVision Multilabel Plate Reader (PerkinElmer, Santa Clara, Calif.). The EC50 values were calculated from the fit of the dose-response curves to a four-parameter equation. All EC50 values represent geometric mean values of a minimum of four determinations.

SMILES: N#Cc1cc(-c2ncnc(Nc3ccc(N4CCN(C5COC5)CC4)cc3)n2)ccc1OC1CCOCC1 [Compound 1, 5-(4-((4-(4-(oxetan-3-yl)piperazin-1-yl)phenyl)amino)-1,3,5-triazin-2-yl)-2-((tetrahydro-2H-pyran-4-yl)oxy)benzonitrile]
- inhibition (read-out: % Inhibition 1): 91%
- inhibition (read-out: % Inhibition 2): 99%
- inhibition (read-out: % Inhibition Avg): 95%
- Hillslope: 1.12
- IC50: 1.04 nM
- fold selectivity (IKBKE) (IC50 relative to IKBKE IC50): 0.2 fold
- fold selectivity (TBK1) (IC50 relative to TBK1 IC50): 1.0 fold
